Data: US20260262643A1, “HERBICIDAL BENZOXAZINES” (FMC CORPORATION, priority 2022, published 2026)

Columns and labels:
barnyardgrass [1] = assay: Test C preemergence; format: in vivo, Echinochloa crusgalli; conditions: 0 to 100 scale (0 no effect, 100 complete control)
In short: (§1)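 Soil-applied (pre) and foliar (post, 1–2 leaf, 2–10 cm) sprays; surfactant-containing non-phytotoxic solvent vehicle; loam/sand substrate. Readout: visual % control at 10 d, greenhouse, versus untreated.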

blackgrass [2] = assay: Test C preemergence; format: in vivo, Alopecurus myosuroides; conditions: 0 to 100 scale (0 no effect, 100 complete control)
In short: as §1

corn [3] = assay: Test C preemergence; format: in vivo, Zea mays; conditions: 0 to 100 scale (0 no effect, 100 complete control)
In short: as §1

green foxtail [4] = assay: Test C preemergence; format: in vivo, Setaria viridis; conditions: 0 to 100 scale (0 no effect, 100 complete control)
In short: as §1

kochia [5] = assay: Test C preemergence; format: in vivo, Bassia scoparia; conditions: 0 to 100 scale (0 no effect, 100 complete control)
In short: as §1

oat, wild [6] = assay: Test C preemergence; format: in vivo, Avena fatua; conditions: 0 to 100 scale (0 no effect, 100 complete control)
In short: as §1

pigweed, palmer [7] = assay: Test C preemergence; format: in vivo, Amaranthus palmeri; conditions: 0 to 100 scale (0 no effect, 100 complete control)
In short: as §1

ragweed [8] = assay: Test C preemergence; format: in vivo, Ambrosia artemisiifolia; conditions: 0 to 100 scale (0 no effect, 100 complete control)
In short: as §1

ryegrass, Italian [9] = assay: Test C preemergence; format: in vivo, Lolium multiflorum; conditions: 0 to 100 scale (0 no effect, 100 complete control)
In short: as §1

soybean [10] = assay: Test C preemergence; format: in vivo, Glycine max; conditions: 0 to 100 scale (0 no effect, 100 complete control)
In short: as §1

wheat [11] = assay: Test C preemergence; format: in vivo, Triticum aestivum; conditions: 0 to 100 scale (0 no effect, 100 complete control)
In short: as §1

barnyardgrass [12] = assay: Test C postemergence; format: in vivo, Echinochloa crusgalli; conditions: 10 days
In short: as §1

blackgrass [13] = assay: Test C postemergence; format: in vivo, Alopecurus myosuroides; conditions: 10 days
In short: as §1

corn [14] = assay: Test C postemergence; format: in vivo, Zea mays; conditions: 10 days
In short: as §1

green foxtail [15] = assay: Test C postemergence; format: in vivo, Setaria viridis; conditions: 10 days
In short: as §1

kochia [16] = assay: Test C postemergence; format: in vivo, Bassia scoparia; conditions: 10 days
In short: as §1

oat, wild [17] = assay: Test C postemergence; format: in vivo, Avena fatua; conditions: 10 days
In short: as §1

pigweed, palmer [18] = assay: Test C postemergence; format: in vivo, Amaranthus palmeri; conditions: 10 days
In short: as §1

ragweed [19] = assay: Test C postemergence; format: in vivo, Ambrosia artemisiifolia; conditions: 10 days
In short: as §1

ryegrass, Italian [20] = assay: Test C postemergence; format: in vivo, Lolium multiflorum; conditions: 10 days
In short: as §1

soybean [21] = assay: Test C postemergence; format: in vivo, Glycine max; conditions: 10 days
In short: as §1

wheat [22] = assay: Test C postemergence; format: in vivo, Triticum aestivum; conditions: 10 days
In short: as §1

horseweed = assay: Test C postemergence; format: in vivo, Erigeron canadensis; conditions: 10 days
In short: as §1

barnyardgrass [23] = assay: Test D flooded paddy test; format: in vivo, Echinochloa crus-galli; conditions: 250 g ai/ha, applied to paddy water, visual rating after 13 to 14 days, scale 0 to 100 (0 no effect, 100 complete control)
In short: (§2)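 Rating scale 0–100 (0 no effect, 100 complete control), visual, versus controls. Readout at 13–14 days after in-water application to 2-leaf plants in pots flooded 3 cm deep.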

ducksalad = assay: Test D flooded paddy test; format: in vivo, Heteranthera limosa; conditions: 250 g ai/ha, applied to paddy water, visual rating after 13 to 14 days, scale 0 to 100 (0 no effect, 100 complete control)
In short: as §2

rice = assay: Test D flooded paddy test; format: in vivo, Oryza sativa; conditions: 250 g ai/ha, applied to paddy water, visual rating after 13 to 14 days, scale 0 to 100 (0 no effect, 100 complete control)
In short: as §2

sedge, umbrella = assay: Test D flooded paddy test; format: in vivo, Cyperus difformis; conditions: 250 g ai/ha, applied to paddy water, visual rating after 13 to 14 days, scale 0 to 100 (0 no effect, 100 complete control)
In short: as §2

[24] = Preemergence, 500 g ai/ha, visual rating after 10 days
[25] = Test C, preemergence, 125 g ai/ha
[26] = 125 g ai/ha, postemergence, 0 to 100 scale, 0 no effect, 100 complete control
[27] = Postemergence, 500 g ai/ha, visual 0 to 100 scale (0 no effect, 100 complete control)

Cc1ccc(-n2cnc(CS(C)(=O)=O)n2)cc1C(=O)N1C[C@H](C)Oc2c(Cl)cccc21 [Compound 225]
50: Barnyardgrass plant response rating (barnyardgrass [1]; [25]) | Plant response rating, Blackgrass (blackgrass [13]; [26])
60: Blackgrass plant response rating (blackgrass [2]; [25]) | Oat, Wild plant response rating (oat, wild [6]; [25]) | Ryegrass, Italian plant response rating (ryegrass, Italian [9]; [25]) | Plant response rating, Oat, Wild (oat, wild [17]; [26])
25: Plant response rating, Barnyardgrass (Flood) (barnyardgrass [23])
90: Plant response rating, Corn (corn [3]; [24]) | Plant response rating, Oat, Wild (oat, wild [6]; [24]) | Plant response rating, Ragweed (ragweed [8]; [24]) | Plant response rating, Soybean (soybean [10]; [24]) | Plant response rating, Blackgrass (blackgrass [13]; [27]) | Plant response rating, Corn (corn [14]; [27]) | Plant response rating, Foxtail, Green (green foxtail [15]; [27]) | Plant response rating, Kochia (kochia [16]; [27]) | Plant response rating, Pigweed, Palmer (pigweed, palmer [18]; [26]) | Plant response rating, Ragweed (ragweed [19]; [26]) | Plant response rating, Ragweed (ragweed [19]; [27]) | Plant response rating, Ryegrass, Italian (ryegrass, Italian [20]; [27]) | Plant response rating, Wheat (wheat [22]; [27])
70: Ragweed plant response rating (ragweed [8]; [25]) | Plant response rating, Barnyardgrass (barnyardgrass [12]; [27]) | Plant response rating, Oat, Wild (oat, wild [17]; [27]) | Plant response rating, Ryegrass, Italian (ryegrass, Italian [20]; [26])
80: Plant response rating, Blackgrass (blackgrass [2]; [24]) | Plant response rating, Ryegrass, Italian (ryegrass, Italian [9]; [24]) | Soybean plant response rating (soybean [10]; [25]) | Plant response rating, Wheat (wheat [11]; [24]) | Plant response rating, Corn (corn [14]; [26]) | Plant response rating, Kochia (kochia [16]; [26]) | Plant response rating, Horseweed (horseweed; [27])
20: Corn plant response rating (corn [3]; [25]) | Kochia plant response rating (kochia [5]; [25]) | Wheat plant response rating (wheat [11]; [25]) | Plant response rating, Barnyardgrass (barnyardgrass [12]; [26]) | Plant response rating, Foxtail, Green (green foxtail [15]; [26]) | Plant response rating, Horseweed (horseweed; [26])
15: Plant response rating, Rice (Flood) (rice)
100: Plant response rating, Barnyardgrass (barnyardgrass [1]; [24]) | Plant response rating, Foxtail, Green (green foxtail [4]; [24]) | Foxtail, Green plant response rating (green foxtail [4]; [25]) | Plant response rating, Kochia (kochia [5]; [24]) | Plant response rating, Pigweed, Palmer (pigweed, palmer [7]; [24]) | Pigweed, Palmer plant response rating (pigweed, palmer [7]; [25]) | Plant response rating, Pigweed, Palmer (pigweed, palmer [18]; [27]) | Plant response rating, Soybean (soybean [21]; [26]) | Plant response rating, Soybean (soybean [21]; [27]) | Plant response rating, Ducksalad (Flood) (ducksalad) | Plant response rating, Sedge, Umbrella (Flood) (sedge, umbrella)
30: Plant response rating, Wheat (wheat [22]; [26])
